# Source: patent publication US11058654B2, “Compositions and methods for the treatment of hemoglobinopathies and thalassemias” (AXCELLA HEALTH INC., priority 2018, dated 2021)
# How the values were obtained:
# Type in all cases: cell-based, human
# ICAM-1 = ICAM-1 cell integrated intensity in HLMVEC treated with TNFa; conditions: 0.5 ng/mL TNFα; amino acids at 20×; 24 hours; in words
# Description: (§1) A VEC model was employed to assess the ability of amino acids to influence aspects of vascular dysfunction in SCD. TNFa treatment of healthy donor HLMVEC mimics the SCD disease state and induces expression of adhesion markers ICAM-1 and VCAM-1, and secretion of proinflammatory cytokine IL-6. It is established that levels of ICAM-1, VCAM-1, and IL-6 can contribute to SCD pathology and correlate with the incidence and severity of complications in SCD patients. The VEC model sought to test the ability of amino acids to reduce the TNFa-induced disease phenotype by lowering expression of adhesion markers (ICAM-1 and VCAM-1) and inflammatory cytokines (IL-6) while promoting VEC health and viability.
# Primary Human Lung Microvascular Endothelial Cells (HLMVEC; Lonza) were seeded at 6,000 cells per well in Endothelial Cell Growth Basal Medium-2 (Lonza) supplemented with Fetal Bovine Serum (FBS; Lonza), human EGF (Lonza), human VEGF (Lonza), R3-Insulin-like Growth Factor-1 (Lonza), ascorbic acid (Lonza), hydrocortisone (Lonza), human FGF-beta (Lonza), and gentamicin/amphotericin-b (Lonza) in a 96-well plate (Thermo Fisher). […]
# (§2) Antibody binding was detected by fluorescence microscopy using a high content imager (Molecular Devices). Images were analyzed using MetaXpress 6 software to determine the integrated intensity per cell for each wavelength corresponding to ICAM-1 or VCAM-1.
# VCAM-1 = VCAM-1 cell integrated intensity in HLMVEC treated with TNFa; conditions: 0.5 ng/mL TNFα; amino acids at 20×; 24 hours; in words
# Description: as §1
# Primary Human Lung Microvascular Endothelial Cells (HLMVEC; Lonza) were seeded at 6,000 cells per well in Endothelial Cell Growth Basal Medium-2 (Lonza) supplemented with Fetal Bovine Serum (FBS; Lonza), human EGF (Lonza), human VEGF (Lonza), R3-Insulin-like Growth Factor-1 (Lonza), ascorbic acid (Lonza), hydrocortisone (Lonza), human FGF-beta (Lonza), and gentamicin/amphotericin-b (Lonza) in a 96-well plate (Thermo Fisher). The cells were incubated for 45 minutes at room temperature, then incubated overnight at 37° C./5% CO2.
# Following overnight incubation, cell were washed once with 150 μL of Dulbecco's phosphate buffered saline (DPBS; Gibco), and then treated with Endothelial Basal Medium MCB-131 (amino acid, glucose, sodium pyruvate, and phenol red free; US Biologicals) containing a defined custom amino acid concentration based on physiological concentrations in blood of patients with SCD (thus recapitulating observed metabolic imbalances such as the depletion of certain essential amino acids including arginine and aspartate and enrichment of certain non-essential amino acids including glutamate and asparagine), dialyzed FBS (Hyclone), human EGF (Lonza), human VEGF (Lonza), R3-Insulin-like Growth Factor-1 (Lonza), ascorbic acid (Lonza), hydrocortisone (Lonza), human FGF-beta (Lonza), and gentamicin/amphotericin-b (Lonza), glucose, 10 mM HEPES, sodium pyruvate, and sodium bicarbonate supplemented with one of the following: • a. PBS (vehicle control), • b. 0.5 ng/mL Tumor Necrosis Factor alpha (TNFα) and PBS, or; • c. 0.5 ng/mL TNFα and amino acid treatments at 20× mean physiological concentrations in plasma based on values published in the Human Metabolome Database (HMDB) in PBS.
# After 24 hours of treatment, cells were washed once with 150 μL of DPBS (Gibco), then fixed with 4% paraformaldehyde. […]
# as §2
# [1] = test system: whole blood of healthy control donors; assay: Reactive oxygen species (DCF fluorescence, H2O2) in whole blood of healthy controls
# Method: (§3) Whole blood samples were appropriately diluted in Ca^2+- and Mg^2+-free Dulbecco's phosphate buffered saline (DPBS, Life Technologies) and the concentration of erythrocytes (RBC/ml) was measured on a Cellometer K2 Fluorescent Viability Cell Counter according to the manufacturer's RBC/AOPI protocol (Nexcelom Biosciences).
# (§4) Cells were then diluted to 1*10^6 RBC/ml into either prewarmed 37° C. […] 2′-7′-dichlorofluorescin diacetate (DCF, Millipore Sigma), 20 mM in dimethyl sulfoxide (DMSO, Fisher) were added to a working concentration of 100 μM. Cells were incubated with dye for 15 minutes at 37° C., 5% CO2 in a tissue culture incubator, washed once, and resuspended in the 0.9 volumes of the same prewarmed 37° C. buffer with 5 minute spins at 500× g, accel/decal=5 in a swing arm centrifuge (Beckman Coulter). […] Where possible due to solubility constrains, pH-7.4-adjusted stock solutions of amino acids were used. Wells were mixed by pipetting and plates incubated at 37° C., 5% CO2 in a tissue culture incubator for 30 minutes. Optionally, 40 mM H2O2(Millipore Sigma) freshly prepared in the same buffer was added to bring the concentration to 2 mM, wells mixed by pipetting, and plates were incubated an additional 30, 60, 120, or 240 minutes before fluorescence measurement of ROS signal on a Synergy H4 (BioTek) microplate reader with excitation=488 nm and emission=530 nm, and gain either set to autogain, 75, or 100.
# [2] = test system: sickle cell disease patient blood; assay: Reactive oxygen species (DCF fluorescence, H2O2) in sickle cell disease patient blood
# Method: as §3, §4
structure (smiles),measurement,setting,value
"NCC(=O)O [Gly, glycine]",TNF-α induced ICAM-1 expression levels in HLMVEC,ICAM-1,reduced levels of ICAM-1 expression to a lesser extent
same,VCAM-1 expression in HLMVEC,VCAM-1,greatly reduced
N[C@@H](CS)C(=O)O [cysteine],ROS measured in whole blood,"[1]; healthy control donors, treated with H2O2, dose-responsive",reduced ROS
same,ROS measured in whole blood,[2]; treated with H2O2 and untreated in DPBS,reduced ROS
N[C@@H](Cc1c[nH]c2ccccc12)C(=O)O [tryptophan],ROS signal,"[1]; healthy donor blood, 10×",increased ROS signal
same,ROS signal,[2]; 10×,increased ROS signal
